One block for each compound: values may come before it.
Key:
[1] = tested on: C. parvum; experiment: Quantification of C. parvum development in HCT-8 cells by immunofluorescence microscopy; type: cell-based, Cryptosporidium parvum (Iowa strain) in human HCT-8 cells; details: for reduction in parasite quantification: 7.5 μM
Procedure: (§1) HCT-8 cell lines (Human ileocecal adenocarcinoma) were purchased from The European Collection of Authenticated Cell Cultures (ECACC) under catalogue number No 90032006) and maintained with regular subculturing in a growth medium consisting in a RPMI 1640 medium supplemented with 1 mM sodium pyruvate, 2 mM l-glutamine, 10 % (vol/vol) of heat-inactivated fetal calf serum, 100 U/mL of penicillin and 100 μg/mL of streptomycin. Cells were grown in an incubator at 37 °C with 5 % (vol/vol) CO2 until monolayers reached 80–90 % confluency. Cells were cultivated in 96-well format plate for molecular analysis and in Lab-Tek™ Chamber Slides for microscopic analysis. 50,000 cells were seeded and incubated during 24 h (until confluency) before infection.
(§2) C. parvum oocysts of “Iowa” strain was purchased from Waterborne Inc. and stored in PBS at 4 °C. A ratio of one oocyst per cell was used to infect HCT-8 cell. Oocysts suspension was incubated with 10 % of a solution (vol/vol) containing 0.5 % sodium hypochlorite for 10 min at 4 °C. After a washing step by centrifugation at 1800g for 15 min at 4 °C, oocysts were incubated in acidified water (pH 2.4) containing 0.025 % (wt/vol) of trypsin, at 37 °C for 20 min, to trigger excystation (infectivity assay developed by [Keegan et al., 2003]). After a third centrifugation step at 1800 g for 10 min, oocysts were suspended in a maintenance medium. The maintenance medium consisted of RPMI 1640 medium with 2 mM l-glutamine, 5 mM glucose, 0.5 μM folic acid, 7 μM 4-amino-benzoic acid, 0.1 μM calcium pantothenate, 50 nM ascorbic acid, 2 % (vol/vol) heat inactivated fetal calf serum and 100 U/mL of streptomycin/penicillin. Before oocyst inoculation, the growth medium was switched with maintenance medium. Triggered oocysts were finally added on monolayers and incubated during 48 h at 37 °C in a 5 % (vol/vol) CO2 atmosphere.
After aspiration of the supernatant from the Nunc™ Lab-Tek™ Chamber slide wells, cells were rinsed with PBS 1X. A fixation step was then performed using methanol during 8 min at 4 °C. Cryptosporidium developmental forms were labelled with a polyclonal IgG antibodies reaction kit tagged with Cy3 (Sporo-Glo™, Waterborne Inc.) and oocysts were labelled with FL-Crypt-a-Glo™, a fluorescein-labelled mouse monoclonal antibody made to oocyst outer wall antigenic sites (epitopes) of C. parvum. Antibodies were 1/20th diluted and incubated on cells for 1 h at room temperature. DNA was labelled with Hoechst for 5 min at room temperature. Slides were then coverslipped with a no fading mounting medium (Waterborne Inc.) and observed with a Leica DMi8 microscope. Each dilution was performed in triplicate and, for each well, ten images were taken at 400× magnification. Parasite quantification was carried out automatically using the StarDist neural network, which was specifically trained to detect and quantify C. parvum parasites.
To confirm our initial findings, we employed an alternative method using immunofluorescence microscopy to quantify C. parvum development in the presence of inhibitors (Fig. S1). […] The results corroborated our initial screening data, confirming the high efficacy of all tested chloronitrophenyl urea analogues, except for imidazole derivatives 18 and 19.
To test this hypothesis, increasing concentrations of squaramide 32 (i.e. 0, 2, 4 and 8 μM) were applied at different infection times: at 0 hpi (hours post infection), to assess the impact on parasite invasion; at 4 hpi, to examine the effect on the early stages of intracellular development; and at 30 hpi, to evaluate the influence on late stage intracellular development. The microscopic images in Fig. 7 illustrate the effect of 32 when applied at the onset of infection and at 30 hpi. Using fluorescent antibodies, the intracellular development of C. parvum is highlighted by green fluorescence, which allows for quantification of the number of parasites per image.

[2] = tested on: C. parvum; experiment: Inhibition of C. parvum replication in infected HCT-8 cells, parasite quantification by qPCR; type: cell-based, Cryptosporidium parvum (Iowa strain) in human HCT-8 cells; details: qPCR
Procedure: as §1, §2
(§3) The compounds (2 mg/mL in DMSO) were diluted to 500 μM and serially diluted in maintenance medium. The cytotoxicity of the compounds was assessed using the CytoTox 96® Non-Radioactive Cytotoxicity Assay (Promega, G1790) in accordance with the manufacturer's protocol.
The COWP gene (GenBank no. AF248743) was amplified by qPCR following the previously described protocol ([Guy et al., 2003]), and the parasitic concentration was determined using the standard range of C. parvum oocyst concentrations. Briefly, serial dilutions from a pure C. parvum oocyst suspension were made starting from a stock solution of 5 × 10^7 oocysts (4 × 10^5 – 2 × 10^5 – 1 × 10^5 – […]–2.5 × 10^3–1.25 × 10^3 oocysts) and the standard curve for quantifying parasites was created to obtain a correlation between Cq values and the Log of concentration.
At the end of the experiment, supernatants from the C. parvum-infected cell cultures were collected. The cell layers were then washed (1x PBS), detached using trypsin (0.25 %), and centrifuged (10,000×g, 10 min). The resulting cell pellet was re-suspended in 150–200 μL of sterile 1x PBS and stored at −20 °C for later DNA extraction. DNA extraction of C. parvum was performed using the Purelink™ Microbiome Purification Kit (Invitrogen™) following the manufacturer's protocol “Transport Media and Microbial Culture Samples” ([Invitrogen, 2015]).
FRePCR reactions were formulated to a volume of 25 μL and comprised of 1.25 μL of primers (10 μM), 0.05 μL probe (100 μM), 12.5 μL Master Mix 2X, LightCycler 480 Probes Master (ref. 04707494001, Roche), 4.95 μL H2O nuclease-free and 5 μL of DNA template. Quantitative PCR was run on a CFX96 real time PCR system (BioRad) with an initial step of activation (10 min 95 °C) following by 40 cycles with cycling conditions as follows: 95 °C for 10 s, 60 °C for 1 min. BioRad CFX manager software was used to analyse the data. Samples were considered negative if Cq ≥ 40.
A common way of defining a 50 % response is to use a mathematical model like the 4-parameter logistic model (4 PL) ([Sebaugh, 2011]). […]

[3] = tested on: HCT-8 cells; experiment: CytoTox 96 Non-Radioactive Cytotoxicity Assay; type: cell-based, Human; details: 10 µM
Procedure: as §1, §3
An initial screening experiment was conducted on the full library to evaluate the cytotoxicity effects on HCT-8 cells. Nitrophenylurea 12 was identified as being cytotoxic so was not progressed further (See Supporting Information). In total, 21 candidates were assessed for their ability to inhibit C. parvum replication at a concentration of 10 μM. Each compound was added at the start of the infection of HCT-8 cells (T0) and remained in the culture for 48 h post infection (hpi). Parasitic quantification was then performed using a molecular method (qPCR). Of the 21 compounds tested, nine were effective inhibitors, reducing parasite proliferation by 80 % or more (Fig. 6). A clear trend emerged with all of the benzyl-substituted ureas 6–10 displaying poor inhibitory activity, regardless of the attached heteroaryl substituent. […] Two exceptions to this were imidazole-containing analogues 18 and 19. […] Among the squaramide series, the results were highly dependent on the nature of the substituent, ranging from high (e.g. ketone 29, furan 32), medium (e.g. 3-pyrazole 30) to low (e.g. 4-pyrazole 31) anti-cryptosporidial activity.

[4] = tested on: C. parvum; set-up: method as in Funkhouser-Jones et al., 2020; details: ref Funkhouser-Jones et al., 2020; cited from earlier work
[5] = tested on: Cryptosporidium; details: cited from earlier work

IC50 ([2]; compounds at 0, 3, 6 and 9 μM added at t0 and left until 48 hpi, read-out: IC50): 2200 nM
SMILES: CC(C)(Nc1c(Nc2ccc(Cl)c([N+](=O)[O-])c2)c(=O)c1=O)c1cccc(-c2ccco2)c1 [Compound 32, (2-((4-Chloro-3-nitrophenyl)amino)-3-((2-(3-(furan-2-yl)phenyl)propan-2-yl)amino)-4-oxocyclobut-2-en-1-ylidene)oxonium]
effect on intracellular development (green fluorescence) ([1]; 2 μM, applied at onset of infection (0 hpi)): significantly reduces green fluorescence
effect on distribution of parasite area ([1]; 7.5 μM or 15 μM, added at 30 hpi until 48 hpi): decreases the prevalence of both small and large parasites
reduction in parasite quantification ([1]; added at 0 hpi, fluorescence microscopy): > 80%
reduction in parasite quantification ([1]; added at 30 hpi, until 48 hpi, fluorescence microscopy): 46%
reduction of parasite load ([1]; 8 μM, added at 30 hpi, 18 h of treatment, fluorescence microscopy): < 50%
anti-cryptosporidial activity (in words) ([2]; 10 μM, added at T0, 48 hpi): high
inhibition rate of C. parvum replication ([2]; 10 μM, added at start of infection (T0), 48 hpi, mean ± SD (n = 3 wells)): 87.2 ± 0.8%
Viability [3]: 94.94%

SMILES: CNC(=O)c1ccc(-c2cnc3cnc(C(=O)N(C)c4ccc(Cl)cc4)cn23)cc1 [KDU691]
stage-specific effect on C. parvum development (in words) [4]: effective at later stages

SMILES: COc1ccc(NC(=O)N2CCCCN3[C@H](CN(C)C)[C@H](c4ccc(C#Cc5ccccc5)cc4)[C@@H]3C2)cc1 [BRD7929]
stage-specific effect on C. parvum development (in words) [4]: blocks nuclear division and arrest development at the trophozoite

SMILES: CC(=O)Oc1ccccc1C(=O)Nc1ncc([N+](=O)[O-])s1 [nitazoxanide]
efficacy in immunocompromised patients (in words) ([5]; even when administered in high doses, ref Rossignol et al., 1998): ineffective
efficacy in children (in words) ([5]; ref Amadi et al., 2002): limited

Source: PMC12123366, “Effect of urea and squaramide IMPDH inhibitors on C. parvum: in vitro trial design impacts the assessment of drug efficacy” (International Journal for Parasitology: Drugs and Drug …, 2025)
